Measured values as given in ChEMBL document CHEMBL3286100, “Synthesis and β-glucuronidase inhibitory activity of 2-arylquinazolin-4(3H)-ones” (Bioorg Med Chem, 2014).

Tests used:
[1] = tested on: PC-3; assay: cells; settings: Homo sapiens, PC-3, 72 h
Description: Cytotoxicity against human PC3 cells after 72 hrs by MTT assay

[2] = molecular target: T1, Beta-glucuronidase (Homo sapiens, UniProt P08236); assay: Inhibition of beta-glucuronidase activity (unknown origin) assessed as p-nitrophenol formation after 30 mins using p-nitrophenyl-beta-D-glucuronide as substrate by spectrophotometry
T1 sequence (P08236 whole entry): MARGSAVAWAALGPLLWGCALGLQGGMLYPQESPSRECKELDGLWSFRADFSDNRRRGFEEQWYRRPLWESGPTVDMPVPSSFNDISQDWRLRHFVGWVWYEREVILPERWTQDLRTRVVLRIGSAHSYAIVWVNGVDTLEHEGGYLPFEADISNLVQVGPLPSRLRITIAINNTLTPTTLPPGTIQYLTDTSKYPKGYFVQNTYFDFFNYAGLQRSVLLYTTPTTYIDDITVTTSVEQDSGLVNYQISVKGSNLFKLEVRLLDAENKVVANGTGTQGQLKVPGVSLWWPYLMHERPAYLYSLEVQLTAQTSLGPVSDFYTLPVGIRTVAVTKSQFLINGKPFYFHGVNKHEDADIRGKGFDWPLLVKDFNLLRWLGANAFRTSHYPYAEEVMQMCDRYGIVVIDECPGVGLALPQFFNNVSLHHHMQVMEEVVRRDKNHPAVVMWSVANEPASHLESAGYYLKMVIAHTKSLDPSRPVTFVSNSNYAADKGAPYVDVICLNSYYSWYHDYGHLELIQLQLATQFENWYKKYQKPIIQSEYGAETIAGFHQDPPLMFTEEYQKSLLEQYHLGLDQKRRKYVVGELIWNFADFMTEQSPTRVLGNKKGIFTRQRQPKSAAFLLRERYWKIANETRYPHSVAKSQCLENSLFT

Compound	IC50 [1] [µM]	IC50 [2] [µM]
O=c1[nH]c(-c2ccc([N+](=O)[O-])cc2)nc2ccccc12	> 30	20.1
COc1ccc(-c2nc(O)c3ccccc3n2)cc1OC	> 30	
O=c1[nH]c(-c2ccc(O)cc2)nc2ccccc12	> 30	22.2
Cc1ccc(-c2nc3ccccc3c(=O)[nH]2)cc1	> 30	173
O=c1[nH]c(-c2cccc(O)c2)nc2ccccc12	> 30	198
O=c1[nH]c(-c2cccc([N+](=O)[O-])c2)nc2ccccc12	> 30	50.4
COc1cc(-c2nc3ccccc3c(=O)[nH]2)cc(OC)c1OC	> 30	120
O=c1[nH]c(-c2ccc(O)c(O)c2)nc2ccccc12	> 30	
O=c1[nH]c(-c2ccc(Cl)cc2Cl)nc2ccccc12	> 30	
O=c1[nH]c(-c2cc(O)ccc2O)nc2ccccc12	> 30	
O=c1[nH]c(-c2c(O)cccc2Br)nc2ccccc12	> 30	
COc1ccc(-c2nc3ccccc3c(=O)[nH]2)cc1	> 30	1.1

Continued, values first:

IC50 [1] [µM]	IC50 [2] [µM]	Compound
> 30		O=c1[nH]c(-c2ccc(Cl)cc2)nc2ccccc12
> 30	5.5	CN(C)c1ccc(-c2nc(O)c3ccccc3n2)cc1
> 30	10	O=c1[nH]c(-c2ccccc2O)nc2ccccc12
> 30	2.8	COc1ccc(-c2nc3ccccc3c(=O)[nH]2)cc1O
> 30		O=c1[nH]c(-c2c(Cl)cccc2Cl)nc2ccccc12
> 30		CCOc1cc(-c2nc3ccccc3c(=O)[nH]2)ccc1O
> 30		O=c1[nH]c(-c2ccccc2[N+](=O)[O-])nc2ccccc12
> 30		COc1cccc(-c2nc3ccccc3c(=O)[nH]2)c1O
> 30		CCOc1ccccc1-c1nc2ccccc2c(=O)[nH]1
> 30		COc1ccc(O)c(-c2nc3ccccc3c(=O)[nH]2)c1
> 30		O=c1[nH]c(-c2ccccc2Cl)nc2ccccc12
> 30		CCOc1ccc(-c2nc3ccccc3c(=O)[nH]2)cc1
